From PMC8192494 (European journal of medicinal chemistry, 2021)
Where “and” joins values, the source holds several entries; their conditions need not be identical. Identical values can stand only once.

Experiments:
[1] = system: DHT-induced growth of LNCaP (AR+) PCa cells; assay: Inhibition of dihydrotestosterone-induced cell proliferation of LNCaP PCa cells; settings: 0.1 nM DHT, 48 h; for inhibition of growth induced by DHT: 0.125 μM dimer
[2] = system: TS-induced growth of LNCaP (AR+) PCa cells; assay: Inhibition of testosterone-induced cell proliferation of LNCaP PCa cells; assay type: cell-based, human; settings: 48 h; for reduction relative to the proliferative response induced by 0.1 nM TS: 1 μM dimer
[3] = target: isolated recombinant CYP3A4 (Homo sapiens, UniProt P08684); assay: Equilibrium ligand binding to CYP3A4; settings: for high spin: high spin content of ligand-bound CYP3A4, mean of three ± SD; for Kd, fold lower than for 14β: relative to 14β
[4] = system: LNCaP (AR+) androgen-sensitive human prostate adenocarcinoma cells; assay: MTT antiproliferative activity assay on LNCaP cells; assay type: cell-based; settings: relative to cyproterone acetate
[5] = system: PC3 (AR−) androgen-insensitive human prostate adenocarcinoma cells; assay: MTT antiproliferative activity assay on PC3 cells; assay type: cell-based; settings: read-out: IC50 PC3 (AR−), 48 h, concentration inhibiting cell growth by 50%
[6] = system: LNCaP, PC3 and DU145 prostate cancer cells; assay: MTT antiproliferative activity, summarised over the three PCa cell lines; assay type: cell-based; settings: Homo sapiens, read-out: IC50 range on different cell lines
PC3 (AR−) PCa cells = settings: read-out: IC50 PC3 (AR−); MTT antiproliferative assay; cited from earlier work
LNCaP (AR+) PCa cells = settings: read-out: IC50 LNCaP (AR+); MTT antiproliferative assay; cited from earlier work

Chain of isolated recombinant CYP3A4 (P08684 whole entry): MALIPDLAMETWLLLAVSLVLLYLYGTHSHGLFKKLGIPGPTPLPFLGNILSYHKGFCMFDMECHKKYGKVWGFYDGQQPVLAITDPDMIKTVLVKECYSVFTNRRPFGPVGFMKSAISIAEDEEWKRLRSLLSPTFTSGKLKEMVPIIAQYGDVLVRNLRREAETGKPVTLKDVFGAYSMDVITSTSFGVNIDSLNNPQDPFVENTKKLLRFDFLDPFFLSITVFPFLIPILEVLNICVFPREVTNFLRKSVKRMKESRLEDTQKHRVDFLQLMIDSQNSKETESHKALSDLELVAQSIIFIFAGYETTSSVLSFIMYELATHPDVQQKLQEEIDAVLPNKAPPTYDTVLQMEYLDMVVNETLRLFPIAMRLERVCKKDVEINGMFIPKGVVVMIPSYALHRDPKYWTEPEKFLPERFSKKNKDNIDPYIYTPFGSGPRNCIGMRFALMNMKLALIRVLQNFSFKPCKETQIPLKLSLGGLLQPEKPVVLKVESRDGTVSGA

SMILES: C[C@]12CC[C@H]3[C@@H]([C@H](/C=C/C=C/C=C/[C@@H]4CC5=CC(=O)CC[C@]5(C)[C@H]5CC[C@]6(C)[C@H](O)CC[C@H]6[C@H]45)CC4=CC(=O)CC[C@@]43C)[C@@H]1CC[C@H]2O (relative stereo) [Compound 14α, trans, trans,trans-1,6-bis-(17α-hydroxy-4-androsten-3-one-7α-yl)hexatriene]
- concentration at which 100% effective against DHT-induced cell proliferation [1]: 1 µM
- inhibition of growth induced by DHT [1]: at least 45%
- concentration at which 100% effective against TS-induced cell proliferation ([2]; 0.1 nM TS): 0.25 µM
- reduction relative to the proliferative response induced by 0.1 nM TS [2]: ~ 141%
- high spin [3]: 46 ± 3%
- Kd, fold lower than for 14β [3]: ~ 4 fold

SMILES: C[C@]12CC[C@H]3[C@@H]([C@H](/C=C/C=C/C=C/[C@@H]4CC5=CC(=O)CC[C@]5(C)[C@H]5CC[C@]6(C)[C@@H](O)CC[C@H]6[C@H]45)CC4=CC(=O)CC[C@@]43C)[C@@H]1CC[C@@H]2O (relative stereo) [Compound 14β, trans, trans,trans-1,6-bis-(17β-hydroxy-4-androsten-3-one-7α-yl)hexatriene]
- concentration at which 100% effective against DHT-induced cell proliferation [1]: 1 µM
- inhibition of growth induced by DHT [1]: at least 45%
- concentration at which 100% effective against TS-induced cell proliferation ([2]; 0.1 nM TS): 0.5 µM
- inhibition of growth induced by TS ([2]; 0.125 μM dimer, 0.1 nM TS): at least 45%
- reduction relative to the proliferative response induced by 0.1 nM TS [2]: 104%
- high spin [3]: 49 ± 3%
- times more active than CPA (IC50 ratio) [4]: ~ 5 times

SMILES: C=CC=C[C@@H]1CC2=CC(=O)CC[C@]2(C)[C@H]2CC[C@]3(C)[C@H](O)CC[C@H]3[C@H]12 [Compound 13α, 7α-(buta-1,3-dienyl)-4-androsten-17α-ol-3-one]
- IC50 [5]: 31.5 µM
- times more active than CPA (IC50 ratio) [4]: about 4 times

SMILES: C=CC=C[C@@H]1CC2=CC(=O)CC[C@]2(C)[C@H]2CC[C@]3(C)[C@@H](O)CC[C@H]3[C@H]12 [Compound 13β, 7α-(buta-1,3-dienyl)-4-androsten-17β-ol-3-one]
- IC50 [5]: 34.1 µM

SMILES: C[C@]12CCC(=O)C=C1C[C@@H](/C=C/C=C/C=C/[C@@H]1CC3=CC(=O)CC[C@]3(C)[C@H]3CC[C@]4(C)C(=O)CC[C@H]4[C@H]13)[C@@H]1[C@@H]2CC[C@]2(C)C(=O)CC[C@@H]12 [Compound 14, trans, trans,trans-1,6-bis-(4-androsten-3,17-dione-7α-yl)hexatriene]
- IC50 [6]: 29 to 72.7 µM
- high spin [3]: 36 ± 2%
- Kd, fold lower than for 14β [3]: ~ 4 fold

SMILES: C[C@]12CC[C@H]3[C@@H]([C@H]([C@H]4C=CC[C@H]5C(=O)OC(=O)[C@@H]45)CC4=CC(=O)CC[C@@]43C)[C@@H]1CC[C@@H]2O [Compound 15, 4-(17β-hydroxy-4-androsten-3-one-7α-yl)-3a,4,7,7a-tetrahydro-isobenzofuran-1,3-dione]
- IC50 [6]: 62.5 to 131 µM

SMILES: C[C@]12CC[C@H]3[C@@H]([C@H](C/C=C\C[C@@H]4CC5=CC(=O)CC[C@]5(C)[C@H]5CC[C@]6(C)[C@@H](O)CC[C@H]6[C@H]45)CC4=CC(=O)CC[C@@]43C)[C@@H]1CC[C@@H]2O [cis-10]
- IC50 (PC3 (AR−) PCa cells): 24.7 µM
- IC50 (LNCaP (AR+) PCa cells): 30.3 µM
- high spin [3]: 99 ± 1%

SMILES: C[C@]12CC[C@H]3[C@@H]([C@H](C/C=C/C[C@@H]4CC5=CC(=O)CC[C@]5(C)[C@H]5CC[C@]6(C)[C@@H](O)CC[C@H]6[C@H]45)CC4=CC(=O)CC[C@@]43C)[C@@H]1CC[C@@H]2O [trans-10, reference compound]
- high spin [3]: 65% and 65 ± 4%
